From patent publication US20130149740A1, “METHOD FOR THE PRODUCTION OF A POLYMERIZED PRODUCT” (Baxter Healthcare S.A., priority 2011, published 2013)

Key:
[1] = Viscosity and estimated capillary number of fibrin sealant components and mixes (squeezing regime); format: physicochemical; details: at 130 s^−1
Method: For these experiments, the experimental device and set-up was the same as described above. However, the liquid which is segmented by air is a mix. Raw products are fibrinogen (with methylene blue as coloring agent) and thrombin from TISSEEL kit which have to be mixed prior to segmentation. A Duploject system was applied which can be completed with a mixing device upstream the T-junction.
Under the “squeezing” regime of segmentation, the viscosities in the following table are calculated for different components, as well as the corresponding capillary numbers for mixes.

[2] = Doxorubicin living time (stability), concentration followed by fluorescence; format: physicochemical; details: in presence of fibrin
Description: DX has some fluorescence properties which can easily be used to measure its concentration in a solution. Indeed, excited with a 470 nm light, it emits a 593 light which intensity depends on DX concentration.

A Viscosity [1] of 1.3 cP was found for [Ca+2].[Cl-].[Cl-] [CaCl2 (40 μmol/ml), CaCl2] in this work.
For COc1cccc2c1C(=O)c1c(O)c3c(c(O)c1C2=O)C[C@@](O)(C(=O)CO)C[C@@H]3O[C@H]1C[C@H](N)[C@H](O)[C@H](C)O1 [DX, Doxorubicin], the DX living time [2] was “higher than 14 days”.
